Test results as given in the supplement of paper PMC10331698.
± gives the standard deviation of the averaged measurements.

Assays:
Assay in all cases: level (log10 ratio to DMSO vehicle control); higher = higher biomarker level / cell amount than vehicle control
[1] = compound: O=C(O)C(F)(F)OC(F)(F)C(F)(F)OC(F)(F)C(F)(F)OC(F)(F)C(F)(F)C(F)(F)C(F)(F)F [Perfluoro-3,6,9-trioxatridecanoic acid] (in DMSO); settings: 6700 nM
Method: (§1)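 BioMAP Diversity Plus panel of 12 human primary cell co-culture systems (3C, 4H, LPS, SAg, BT, BF4T, BE3C, CASM3C, HDF3CGF, KF3CT, MyoF, Mphg). Compounds were added 1 h before stimulation and left for 24 h (MyoF 48 h; BT 72 h for soluble read-outs or 6 d for IgG). Biomarkers were read by ELISA, cytotoxicity by SRB, PBMC viability and proliferation by Alamar Blue. Each well value was divided by the mean of 8 DMSO control wells on the same plate and log10 transformed; duplicate blinded samples were tested at 4 concentrations.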

[2] = compound: O=S(=O)(O)CCC(F)(F)C(F)(F)C(F)(F)C(F)(F)C(F)(F)C(F)(F)C(F)(F)C(F)(F)F [8:2 Fluorotelomer sulfonic acid] (in DMSO)
Method: as §1

[3] = compound: O=C(O)C=C(C(F)(F)F)C(F)(F)F [3,3-Bis(trifluoromethyl)-2-propenoic acid] (in DMSO)
Method: as §1

[4] = compound: O=S(=O)(O)C(F)(F)C(F)(F)C(F)(F)C(F)(F)C(F)(F)C(F)(F)C(F)(F)F [Perfluoroheptanesulfonic acid] (in DMSO)
Method: as §1

[5] = compound: CCOC(=O)CC(=O)C(F)(F)C(F)(F)F [Ethyl pentafluoropropionyl acetate] (in DMSO)
Method: as §1

[6] = compound: CN(C(=O)C(F)(F)C(F)(F)C(F)(F)F)[Si](C)(C)C [N-Methyl-N-trimethylsilylheptafluorobutyramide] (in DMSO)
Method: as §1

[7] = compound: C=C(C)C(=O)OCCC(F)(F)C(F)(F)C(F)(F)C(F)(F)C(F)(F)C(F)(F)C(F)(F)C(F)(F)F [8:2 Fluorotelomer methacrylate] (in DMSO)
Method: as §1

| Test System | level (log10) [1] | level (log10) ([2]; 6700 nM) | level (log10) ([2]; 20000 nM) | level (log10) ([2]; 60000 nM) | level (log10) ([3]; 6700 nM) | level (log10) ([3]; 20000 nM) | level (log10) ([3]; 60000 nM) | level (log10) ([4]; 1500 nM) | level (log10) ([4]; 4400 nM) | level (log10) ([4]; 13000 nM) | level (log10) ([4]; 40000 nM) | level (log10) ([5]; 6700 nM) | level (log10) ([5]; 20000 nM) | level (log10) ([5]; 60000 nM) | level (log10) ([6]; 6700 nM) | level (log10) ([6]; 20000 nM) | level (log10) ([6]; 60000 nM) | level (log10) ([7]; 6700 nM) | level (log10) ([7]; 20000 nM) |
| --- | --- | --- | --- | --- | --- | --- | --- | --- | --- | --- | --- | --- | --- | --- | --- | --- | --- | --- | --- |
| SAg:CD40 | -0.0155 ± 0.043 | -0.013 ± 0.051 | -0.0215 ± 0.021 | -0.071 ± 0.051 | 0.0205 ± 0.005 | -0.01 ± 0.017 | -0.094 ± 0.038 | -0.0375 ± 0.023 | -0.0165 ± 0.012 | -0.009 ± 0.016 | -0.049 ± 0.014 | 0.005 ± 0.0028 | -0.0205 ± 0.0021 | -0.0275 ± 0.0035 | -0.0185 ± 0.059 | -0.009 ± 0.0042 | -0.0075 ± 0.00071 | -0.0265 ± 0.035 | -0.0335 ± 0.0078 |
| SAg:CD62E/E-Selectin | -0.019 ± 0.057 | 0.0085 ± 0.042 | 0.0465 ± 0.013 | 0.109 ± 0.0042 | -0.096 ± 0.0071 | -0.192 ± 0.032 | -0.459 ± 0.11 | 0.0035 ± 0.043 | -0.03 ± 0.018 | 0.0025 ± 0.00071 | 0.0435 ± 0.0035 | -0.0005 ± 0.018 | -0.006 ± 0.0028 | 0.004 ± 0.033 | -0.017 ± 0.0085 | -0.017 ± 0.017 | -0.0225 ± 0.021 | -0.005 ± 0.013 | 0.0205 ± 0.023 |
| SAg:CD69 | -0.0065 ± 0.0021 | -0.025 ± 0.057 | -0.0205 ± 0.04 | -0.043 ± 0.075 | -0.0145 ± 0.013 | -0.0615 ± 0.0092 | -0.171 ± 0.0014 | -0.0145 ± 0.029 | -0.0175 ± 0.012 | -0.004 ± 0.03 | 0.0045 ± 0.013 | 0.0075 ± 0.026 | -0.0015 ± 0.029 | 0.019 ± 0.05 | -0.024 ± 0.0014 | 0.0015 ± 0.0078 | -0.0025 ± 0.015 | -0.013 ± 0.016 | -0.022 ± 0.013 |
| SAg:CXCL8/IL-8 | -0.023 ± 0.011 | -0.0075 ± 0.076 | -0.009 ± 0.014 | 0.071 ± 0.044 | -0.0225 ± 0.025 | -0.101 ± 0.023 | -0.227 ± 0.084 | 0.0205 ± 0.12 | -0.04 ± 0.075 | -0.001 ± 0.045 | 0.0455 ± 0.047 | -0.023 ± 0.016 | -0.0475 ± 0.032 | -0.007 ± 0.085 | -0.0015 ± 0.018 | -0.0385 ± 0.019 | -0.007 ± 0.035 | -0.0215 ± 0.047 | 0.007 ± 0.021 |
| SAg:CXCL9/MIG | -0.001 ± 0.0014 | 0.0005 ± 0.018 | -0.008 ± 0.0028 | 0.001 ± 0.0057 | -0.0065 ± 0.012 | -0.017 ± 0.0099 | 0.006 ± 0.0071 | -0.0015 ± 0.0092 | -0.002 ± 0.018 | -0.004 ± 0.0085 | 0.008 | -0.001 ± 0.011 | -0.015 ± 0.0099 | 0.0065 ± 0.0021 | 0.007 ± 0.0057 | -0.009 ± 0.0014 | -0.0135 ± 0.0078 | 0.001 ± 0.0099 | 0.002 ± 0.0014 |
| SAg:PBMC Cytotoxicity | -0.003 ± 0.037 | -0.0125 ± 0.015 | 0 ± 0.0042 | 0.0075 ± 0.0021 | -0.01 ± 0.0028 | -0.021 ± 0.016 | 0.002 ± 0.03 | 0.026 ± 0.016 | -0.022 ± 0.033 | -0.0335 ± 0.00071 | 0.01 ± 0.033 | -0.0055 ± 0.032 | -0.005 ± 0.025 | -0.0015 ± 0.021 | -0.0155 ± 0.00071 | 0.011 ± 0.014 | 0.011 ± 0.025 | -0.0215 ± 0.012 | 0.018 ± 0.011 |
| SAg:Proliferation | -0.0295 ± 0.042 | -0.02 ± 0.054 | -0.0085 ± 0.011 | -0.0735 ± 0.0035 | 0.004 ± 0.0085 | -0.0715 ± 0.022 | -0.462 ± 0.032 | 0.0105 ± 0.026 | 0.0125 ± 0.029 | -0.024 ± 0.037 | 0.0325 ± 0.019 | 0.001 ± 0.065 | -0.004 ± 0.025 | 0.0315 ± 0.047 | 0.0395 ± 0.015 | 0.0565 ± 0.028 | 0.0635 ± 0.088 | -0.0045 ± 0.053 | 0.052 ± 0.0028 |
| SAg:SRB | 0.0015 ± 0.013 | -0.0075 ± 0.0035 | -0.0095 ± 0.0035 | -0.0335 ± 0.011 | 0.0025 ± 0.0021 | -0.006 ± 0.0085 | -0.0275 ± 0.005 | -0.015 ± 0.0057 | -0.0125 ± 0.00071 | -0.0005 ± 0.012 | -0.0025 ± 0.013 | 0 ± 0.0057 | 0.004 | -0.003 ± 0.02 | 0.0055 ± 0.013 | 0.013 ± 0.0042 | 0.008 ± 0.0099 | -0.009 ± 0.0014 | -0.011 ± 0.018 |
